From patent US12295970B2, “Imidazoquinoline compounds and prodrugs thereof” (UNIVERSITY OF KANSAS, priority 2019, dated 2025)

Assays:
Hydrolysis of R848-Toco = format: physicochemical
Experimental: For hydrolysis, R848-Toco (0.1 mg) was dissolved in 1 mL of DMSO, and the solution was added into 9 mL of hydrolysis media (PBS or 0.5% (w/v) polysorbate 80/PBS). The solution was then rapidly mixed and filtered using a syringe filter (0.22 μm×13 mm, nylon). The filtrate was then incubated at 37° C. under agitation (250 rpm). At predetermined time points, 50 μL of the solution was sampled and analyzed immediately by HPLC.

canine PBMCs = experiment: In vitro cytokine secretion assay in canine PBMCs (Example 3); format: cell-based; conditions: 15 hours, ELISA
Excerpt: As a TLR7/8 agonist, R848 binds to endosomal TLR7 and 8 receptors located on antigen presenting cells (APCs). The activation of APCs produces pro-inflammatory cytokines including TNF-α, type I IFN and IL-12. These cytokines, together with stimulated APCs that take up tumor antigens, enhance the activation of anti-tumor Th-1 immune responses that involve both CD4^+ T helper cells and CD8^+ cytotoxic T cells.^16 To evaluate the Th-1 associated cytokine production in vitro, isolated canine PBMCs were treated with R848, formulated or unformulated R848-Toco, and the secretion of TNF-α and IL-12 were measured by ELISA as markers of generalized inflammatory response. Canines were chosen as a model over mice because of the greater genetic similarity to humans and more similar immune systems.^46 Peripheral blood from healthy canine donors of 7-10 years age (similar to the age of typical canines with cancer^14) was obtained with appropriate informed consent of the owner. Blood (8 mL per tube) was drawn via sterile venipuncture into a BD Vacutainer cell preparation tube containing sodium heparin (BD Biosciences). PBMCs were isolated within one hour following procurement by density gradient centrifugation according to the manufacturer protocol and resuspended to 3×10^6 cells/mL in sterile RPMI 1640 medium with L-glutamine (Gibco) supplemented with 100 IU/mL penicillin, 100 μg/mL streptomycin (Corning) and 10% (v/v) heat-inactivated Fetalgro (RMBIO). Corning 3917, 96-well tissue culture treated plates were seeded with the PBMC suspension (180 μL/well), 20 μL of the serially diluted R848 samples were added in triplicate and HA-Toco vehicle in duplicate to yield the desired concentrations in a 1% (v/v) DMSO cell suspension. […] Sample cytokine concentrations were determined by interpolation of a four-parameter logistic curve of the recombinant standards using GraphPad Prism 6. […] Cytokine secretion levels were measured by ELISA (Duoset, R&D Systems, Minneapolis, MN, USA) according to the manufacturer protocol.

human TLR7 (hTLR7) = biological target: T1, human TLR7 (hTLR7) (Homo sapiens, UniProt Q9NYK1); experiment: In vitro TLR7 activity assay (HEK-Blue hTLR7, QUANTI-Blue, Example 3); format: cell-based; conditions: 16 h incubation; Null 1-k subtracted
T1 construct: host or cells: HEK-293 (HEK-Blue hTLR7)
T1 sequence (Q9NYK1 27-1049): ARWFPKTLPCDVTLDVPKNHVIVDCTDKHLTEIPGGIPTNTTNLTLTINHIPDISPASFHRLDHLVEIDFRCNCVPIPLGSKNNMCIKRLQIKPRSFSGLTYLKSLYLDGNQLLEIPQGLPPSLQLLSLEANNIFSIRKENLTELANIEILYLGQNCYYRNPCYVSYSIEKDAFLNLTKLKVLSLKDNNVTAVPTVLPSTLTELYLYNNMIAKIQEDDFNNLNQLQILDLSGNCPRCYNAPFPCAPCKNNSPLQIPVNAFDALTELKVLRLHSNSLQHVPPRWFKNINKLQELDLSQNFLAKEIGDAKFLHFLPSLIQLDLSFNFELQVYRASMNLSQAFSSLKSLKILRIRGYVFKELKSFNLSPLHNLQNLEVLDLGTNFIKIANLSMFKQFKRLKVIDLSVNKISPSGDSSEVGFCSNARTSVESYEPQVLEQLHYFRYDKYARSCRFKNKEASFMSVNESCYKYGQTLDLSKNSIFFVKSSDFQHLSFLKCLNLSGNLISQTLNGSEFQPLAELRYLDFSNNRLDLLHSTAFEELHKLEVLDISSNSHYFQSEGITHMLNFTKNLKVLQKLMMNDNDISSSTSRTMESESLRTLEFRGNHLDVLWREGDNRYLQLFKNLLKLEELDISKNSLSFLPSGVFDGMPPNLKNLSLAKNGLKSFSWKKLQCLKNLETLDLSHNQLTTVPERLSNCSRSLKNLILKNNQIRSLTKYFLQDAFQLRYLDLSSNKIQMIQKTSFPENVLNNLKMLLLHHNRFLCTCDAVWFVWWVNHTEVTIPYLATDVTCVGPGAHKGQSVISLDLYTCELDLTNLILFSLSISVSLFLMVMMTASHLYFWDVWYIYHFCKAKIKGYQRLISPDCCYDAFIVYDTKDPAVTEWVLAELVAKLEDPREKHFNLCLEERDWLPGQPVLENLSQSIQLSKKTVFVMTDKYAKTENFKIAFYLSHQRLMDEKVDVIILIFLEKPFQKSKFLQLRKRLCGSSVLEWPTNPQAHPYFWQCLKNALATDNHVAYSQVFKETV
Experimental: TLR agonist activity was measured in a dose-response study using reporter cell lines expressing the human TLR7 (hTLR7). […] The hTLR7 activity of R848-Toco, the formulation and its components were assessed using HEK-293 cells co-transfected with the hTLR7 gene and an inducible SEAP reporter gene along with the corresponding null control line (HEK-Blue™ hTLR7 and Null-1k cells, Invivogen). Cells were maintained in DMEM media with selective antibiotics according to the manufacturer protocol.^26 HEK-Blue™ cells were seeded into 96 well plates at a density of 220,000 cells/mL with 180 μL/well of culture medium. Stock solutions in DMSO were first serially diluted to seven concentrations (DMSO solutions further diluted into H2O). Each well was stimulated with 20 μL of agonists or agonist-free controls (equivalent concentration of HA-Toco, D-α-Tocopherol succinate, PBS or […] DMSO) at the determined final concentrations in 5 replicates. After 16 h of incubation at 37° C. in a 5% CO2 atmosphere, 20 μL of the supernatant from each well was sampled and spiked into 180 μL of QUANTI-Blue™ solution followed by incubation for 1 h at 37° C. Relative hTLR7 activity was then analyzed by UV-Vis at 637 nm using a microplate UV reader (SpectraMAX GeminiXS, Molecular Devices, San Jose, CA, USA). For each compound and concentration, a corresponding sample was applied to the HEK-Blue™ Null-1k cell line. The TLR7 agonist activity was determined after averaging across hTLR7 replications and subtracting the averaged Null response.
Activation levels were calculated as the difference between the average readings of the hTLR7 cell line and the Null 1-k cell line, to account for non-hTLR7 related induction of NF-κB. […] Therefore, this study confirmed that R848-Toco, formulated with HA-Toco as an emulsion, maintained its TLR agonist activity. […]

[1] = Solubility in water (in words); format: physicochemical
[2] = In vitro release kinetics (dialysis method); format: physicochemical
Experimental: Solutions (1 mL) of free R848 in DMSO, R848/HA-Toco in water, R848-Toco in DMSO, and R848-Toco/HA-Toco in water, with a concentration of 1 mg/mL on R848 basis were dialyzed using SnakeSkin® dialysis tubing (MWCO […]) against 30 mL of phosphate buffered saline release medium (PBS, 10 mM sodium phosphate, 137 mM NaCl, pH 7.4) with 0.5% (w/v) polysorbate 80 at 37° C. At predetermined time points, 1 mL aliquots of release medium were sampled and replaced with an equal volume of fresh medium. The samples were kept frozen (−20° C.) until HPLC analysis.
Results: The in vitro release profiles of R848 and R848-Toco from the HA-Toco were studied using a dialysis method. […] The release of parent R848 formulated with HA-Toco was tested in PBS media, with free R848 dissolved in DMSO as a control. Similar release kinetics were observed whether R848 was formulated with HA-Toco or without ([…]), and in both conditions nearly 100% of the agonist was released over 24 h (FIG. 4A).

mast cell tumors = conditions: 86 canine patients (7 complete response and 25 partial response); cited from earlier work

## CCOCc1nc2c(N)nc3ccccc3c2n1CC(C)(C)OC(=O)CCC(=O)Oc1c(C)c(C)c2c(c1C)CC[C@@](C)(CCC[C@H](C)CCC[C@H](C)CCCC(C)C)O2 [Compound R848-Toco]
Hydrolysis of R848-Toco; hydrolysis sample at 8 h
  hydrolyzed products observed by HPLC: R848, which was the only observed hydrolyzed product
Hydrolysis of R848-Toco; initial 8 h, 37° C.
  R848-Toco hydrolyzed to R848: 72%
Canine PBMCs
  IL-12 levels: lower expression
Human TLR7 (hTLR7)
  hTLR7 activation (NF-κB, in words): much less active
[1]
  solubility in water: poorly soluble in water
[2]; 0.5% w/v polysorbate 80 solution of PBS
  released over the first 24 h: 76%
[2]; PBS, pH 7.4
  release profile (in words): burst release within the first half hour

## Cc1[nH]c(/C=C2\C(=O)Nc3ccc(F)cc32)c(C)c1C(=O)NCCN1CCCC1.O=P(O)(O)O [toceranib phosphate]
Mast cell tumors
  response rate: 37.2%
